Assay results published in patent US10246429B2, “Vinyl fluoride cyclopropyl fused thiazin-2-amine compounds as beta-secretase inhibitors and methods of use” (AMGEN INC., priority 2015, dated 2019).

How the values were obtained:
[1] = molecular target: BACE2 (Homo sapiens (Human), UniProt Q9Y5Z0); experiment: In vitro enzymatic BACE2 FRET assay; assay type: biochemical; details: read-out: IC50 IP (μM) BACE2 Enzyme
Description: In Vitro Enzymatic BACE1 and BACE2 FRET (Fluorescence Resonance Energy Transfer) Assays (Enzyme Assay Data in Table 1)

[2] = molecular target: Cathepsin D (CatD) (Homo sapiens (Human), UniProt P07339); experiment: CatD assay; assay type: biochemical; details: read-out: IC50 IP (μM) CatD
Sequence of Cathepsin D (CatD) (P07339 65-412, species assumed): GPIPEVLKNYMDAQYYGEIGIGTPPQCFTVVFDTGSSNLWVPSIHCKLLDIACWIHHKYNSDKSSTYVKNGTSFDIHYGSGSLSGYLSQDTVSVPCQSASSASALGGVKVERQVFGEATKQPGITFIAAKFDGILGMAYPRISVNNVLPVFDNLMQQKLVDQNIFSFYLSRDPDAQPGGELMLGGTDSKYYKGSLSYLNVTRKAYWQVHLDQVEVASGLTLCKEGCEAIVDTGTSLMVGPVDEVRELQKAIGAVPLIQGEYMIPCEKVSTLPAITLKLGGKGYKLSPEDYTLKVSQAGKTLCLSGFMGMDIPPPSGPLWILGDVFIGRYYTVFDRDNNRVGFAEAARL

Sequence of BACE2 (Q9Y5Z0 63-518): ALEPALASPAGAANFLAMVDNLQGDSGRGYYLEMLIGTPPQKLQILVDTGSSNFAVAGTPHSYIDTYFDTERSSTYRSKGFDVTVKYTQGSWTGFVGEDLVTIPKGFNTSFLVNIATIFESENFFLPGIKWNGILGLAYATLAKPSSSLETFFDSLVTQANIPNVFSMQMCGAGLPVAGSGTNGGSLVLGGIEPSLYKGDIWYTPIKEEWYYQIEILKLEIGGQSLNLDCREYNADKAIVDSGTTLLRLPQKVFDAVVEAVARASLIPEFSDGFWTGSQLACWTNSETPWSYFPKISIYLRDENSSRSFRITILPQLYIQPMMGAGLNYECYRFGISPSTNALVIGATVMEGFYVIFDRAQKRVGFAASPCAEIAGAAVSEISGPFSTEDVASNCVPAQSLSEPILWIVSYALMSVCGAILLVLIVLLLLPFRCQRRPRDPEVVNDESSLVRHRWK

SMILES	IC50 [1]	IC50 [2]
CN(C)C(=O)[C@]12C[C@H]1[C@@](C)(c1cc(/C=C(\F)c3ccc(C#N)cc3F)ccc1F)N=C(N)S2 [Example 172, (1S,5S,6S)-3-amino-5-(5-((Z)-2-(4-cyano-2-fluorophenyl)-2-fluorovinyl)-2-fluorophenyl)-N,N,5-trimethyl-2-thia-4-azabicyclo[4.1.0]hept-3-ene-1-carboxamide]	0.146 µM	202 µM
C[C@]1(c2cc(/C=C(\F)c3ccc(C#N)cn3)ccc2F)N=C(N)S[C@@]2(C(=O)N3CCN(CC4CC4)CC3)C[C@H]21 [Example 141, 6-((Z)-2-(3-((1S,5S,6S)-3-amino-1-(4-(cyclopropylmethyl)piperazine-1-carbonyl)-5-methyl-2-thia-4-azabicyclo[4.1.0]hept-3-en-5-yl)-4-fluorophenyl)-1-fluorovinyl)nicotinonitrile]	0.336 µM	400 µM
CC#CCOc1cnc(/C(F)=C/c2ccc(F)c([C@@]3(C)N=C(N)S[C@@]4(COC)C[C@H]43)c2)cn1 [Example 263]	1.84 µM	492 µM
CNC(=O)[C@]12C[C@H]1[C@@](C)(c1cc(/C=C(\F)c3ccc(Cl)cn3)ccc1F)N=C(N)S2 [Example 175, (1S,5S,6S)-3-amino-5-(5-((Z)-2-(5-chloropyridin-2-yl)-2-fluorovinyl)-2-fluorophenyl)-N,5-dimethyl-2-thia-4-azabicyclo[4.1.0]hept-3-ene-1-carboxamide]	0.0364 µM	204 µM
COC[C@]12C[C@H]1[C@@](C)(c1cc(/C=C(\F)c3cnc(OC(C)C(F)(F)F)cn3)ccc1F)N=C(N)S2 (stereo partly shown) [Example 277]	2.42 µM	207 µM
CN(C)C(=O)[C@]12C[C@H]1[C@@](C)(c1cc(/C=C(\F)c3cnc(C#N)cn3)ccc1F)N=C(N)S2 [Example 169, (1S,5S,6S)-3-amino-5-(5-((Z)-2-(5-cyanopyrazin-2-yl)-2-fluorovinyl)-2-fluorophenyl)-N,N,5-trimethyl-2-thia-4-azabicyclo[4.1.0]hept-3-ene-1-carboxamide]	0.0174 µM	95.5 µM
C[C@]1(c2cc(/C=C(\F)c3cnc(N4CCC4)cn3)ccc2F)N=C(N)S[C@@]2(C(=O)N3CCOCC3)C[C@H]21 [Example 351, ((1S,5S,6S)-3-amino-5-(5-((Z)-2-(5-(azetidin-1-yl)pyrazin-2-yl)-2-fluorovinyl)-2-fluorophenyl)-5-methyl-2-thia-4-azabicyclo[4.1.0]hept-3-en-1-yl)(morpholino)methanone]	1.56 µM	52.6 µM
CN(C)C(=O)[C@]12C[C@H]1[C@@](C)(c1cc(/C=C(\F)c3ccc(C#N)cn3)cnc1F)N=C(N)S2 [Example 180, (1S,5S,6S)-3-amino-5-(5-((Z)-2-(5-cyanopyridin-2-yl)-2-fluorovinyl)-2-fluoropyridin-3-yl)-N,N,5-trimethyl-2-thia-4-azabicyclo[4.1.0]hept-3-ene-1-carboxamide]	0.023 µM	> 400 µM
COC[C@]12C[C@H]1[C@@](C)(c1cc(/C=C(\F)c3cnc(OCc4cc(C)no4)cn3)ccc1F)N=C(N)S2 [Example 276]	0.966 µM	156 µM
C[C@]1(c2cc(/C=C(\F)c3cnc(Cl)cn3)ccc2F)N=C(N)S[C@]2(CO)[C@H]1C2(F)F [Example 252, ((1S,5S,6R)-3-amino-5-(5-((Z)-2-(5-chloropyrazin-2-yl)-2-fluorovinyl)-2-fluorophenyl)-7,7-difluoro-5-methyl-2-thia-4-azabicyclo[4.1.0]hept-3-en-1-yl)methanol]	0.151 µM	158 µM
COC(=O)[C@]12C[C@H]1[C@@](C)(c1cc(/C=C(\F)c3ccc(Br)cn3)ccc1F)N=C(N)S2 [Example 105, (1S,5S,6S)-methyl 3-amino-5-(5-((Z)-2-(5-bromopyridin-2-yl)-2-fluorovinyl)-2-fluorophenyl)-5-methyl-2-thia-4-azabicyclo[4.1.0]hept-3-ene-1-carboxylate]	0.127 µM	302 µM
